Data taken from patent US5698544A, “Cephem compound, process for producing the compound, and antimicrobial composition containing the same” (Otsuka Kagaku Kabushiki Kaisha, priority 1994, dated 1997).
Values after ≈ are worked out from the molar mass of the structure shown.

Assays:
S. aureus FDA 209-P = assay: Agar plate dilution assay (MIC), S. aureus FDA 209-P; format: cell-based; details: Staphylococcus aureus, FDA209, inoculum size 10^6 cells/ml
E. faecalis ATCC-21212 = assay: Agar plate dilution assay (MIC), E. faecalis ATCC-21212; format: cell-based; details: Enterococcus faecalis, ATCC21212, inoculum size 10^6 cells/ml
MRSA 92-1044 = assay: Agar plate dilution assay (MIC), MRSA 92-1044; format: cell-based, methicillin-resistant Staphylococcus aureus; details: Staphylococcus aureus, inoculum size 10^6 cells/ml
E. coli NIHJ JC-2 = assay: Agar plate dilution assay (MIC), E. coli NIHJ JC-2; format: cell-based; details: Escherichia coli, NIHJJC2, inoculum size 10^6 cells/ml
S. marcescens IFO-12648 = assay: Agar plate dilution assay (MIC), S. marcescens IFO-12648; format: cell-based; details: Serratia marcescens, IFO12648, inoculum size 10^6 cells/ml

Row | SMILES | MIC (S. aureus FDA 209-P) [µg/mL] | MIC (E. faecalis ATCC-21212) [µg/mL] | MIC (MRSA 92-1044) [µg/mL] | MIC (E. coli NIHJ JC-2) [µg/mL] | MIC (S. marcescens IFO-12648) [µg/mL]
1 | CO[C@@]1(NC(=O)CSC(F)F)C(=O)N2C(C(=O)O)=C(CSc3nnnn3CCO)CO[C@@H]21 [FMOX, flomoxef, reference compound] | 0.2 (≈ 0.403 µM) | 100 (≈ 201 µM) | > 100 | 0.05 (≈ 0.101 µM) | 0.2 (≈ 0.403 µM)
2 | C[N+]1(CC[n+]2ccc(SC=CC3=C(C(=O)O)N4C(=O)C(NC(=O)C(=NO)c5csc(N)n5)C4SC3)cc2)CCOCC1 (centres unmarked) [(f)] | 0.1 | 0.2 | 1.56 | 0.025 | 0.1
3 | C[N+](C)(C)CC[n+]1ccc(SC=CC2=C(C(=O)O)N3C(=O)C(NC(=O)C(=NOC4CCCC4)c4csc(N)n4)C3SC2)cc1 (centres unmarked) [(a)] | 0.39 | 0.39 | 6.25 | 0.39 | 3.13
4 | C[N+](C)(CCO)CC[n+]1ccc(SC=CC2=C(C(=O)O)N3C(=O)C(NC(=O)C(=NO)c4csc(N)n4)C3SC2)cc1 (centres unmarked) [(e)] | 0.1 | 0.1 | 1.56 | 0.05 | 0.1
5 | C[N+](C)(C)CC[n+]1ccc(SC=CC2=C(C(=O)O)N3C(=O)C(NC(=O)C(=NO)c4csc(N)n4)C3SC2)cc1 (centres unmarked) [(b)] | 0.1 | 0.1 | 1.56 | 0.05 | 0.1
6 | CC(=O)C[N+](C)(C)CC[n+]1ccc(SC=CC2=C(C(=O)O)N3C(=O)C(NC(=O)C(=NO)c4csc(N)n4)C3SC2)cc1 (centres unmarked) [(d)] | 0.2 | 0.2 | 1.56 | 0.025 | 0.2
7 | C[N+](C)(CC[n+]1ccc(SC=CC2=C(C(=O)O)N3C(=O)C(NC(=O)C(=NO)c4csc(N)n4)C3SC2)cc1)CC(N)=O (centres unmarked) [(c)] | 0.1 | 0.1 | 1.56 | 0.025 | 0.1
